The numbers were not newly measured in PMC9851200, “Multiparameter phenotypic screening for endogenous TFEB and TFE3 translocation identifies novel chemical series modulating lysosome function” (Autophagy, 2022), which cites them from elsewhere.

What all share (parameters): method as in original PKIS2 published data
Data set [1] concerns the target kinases (KINOMEscan panel) (Homo sapiens, UniProt Q8TDR2). The following applies: STK35; Published KINOMEscan; ref original PKIS2 published data; cited from earlier work.
The target of data set [2] is kinases (KINOMEscan panel) (Homo sapiens, UniProt Q5S007). The settings on record: Published KINOMEscan; ref original PKIS2 published data; cited from earlier work.
Data set [3] addresses T1, kinases (KINOMEscan panel) (Homo sapiens, UniProt Q9NRM7).
T1 sequence (Q9NRM7 1-1088): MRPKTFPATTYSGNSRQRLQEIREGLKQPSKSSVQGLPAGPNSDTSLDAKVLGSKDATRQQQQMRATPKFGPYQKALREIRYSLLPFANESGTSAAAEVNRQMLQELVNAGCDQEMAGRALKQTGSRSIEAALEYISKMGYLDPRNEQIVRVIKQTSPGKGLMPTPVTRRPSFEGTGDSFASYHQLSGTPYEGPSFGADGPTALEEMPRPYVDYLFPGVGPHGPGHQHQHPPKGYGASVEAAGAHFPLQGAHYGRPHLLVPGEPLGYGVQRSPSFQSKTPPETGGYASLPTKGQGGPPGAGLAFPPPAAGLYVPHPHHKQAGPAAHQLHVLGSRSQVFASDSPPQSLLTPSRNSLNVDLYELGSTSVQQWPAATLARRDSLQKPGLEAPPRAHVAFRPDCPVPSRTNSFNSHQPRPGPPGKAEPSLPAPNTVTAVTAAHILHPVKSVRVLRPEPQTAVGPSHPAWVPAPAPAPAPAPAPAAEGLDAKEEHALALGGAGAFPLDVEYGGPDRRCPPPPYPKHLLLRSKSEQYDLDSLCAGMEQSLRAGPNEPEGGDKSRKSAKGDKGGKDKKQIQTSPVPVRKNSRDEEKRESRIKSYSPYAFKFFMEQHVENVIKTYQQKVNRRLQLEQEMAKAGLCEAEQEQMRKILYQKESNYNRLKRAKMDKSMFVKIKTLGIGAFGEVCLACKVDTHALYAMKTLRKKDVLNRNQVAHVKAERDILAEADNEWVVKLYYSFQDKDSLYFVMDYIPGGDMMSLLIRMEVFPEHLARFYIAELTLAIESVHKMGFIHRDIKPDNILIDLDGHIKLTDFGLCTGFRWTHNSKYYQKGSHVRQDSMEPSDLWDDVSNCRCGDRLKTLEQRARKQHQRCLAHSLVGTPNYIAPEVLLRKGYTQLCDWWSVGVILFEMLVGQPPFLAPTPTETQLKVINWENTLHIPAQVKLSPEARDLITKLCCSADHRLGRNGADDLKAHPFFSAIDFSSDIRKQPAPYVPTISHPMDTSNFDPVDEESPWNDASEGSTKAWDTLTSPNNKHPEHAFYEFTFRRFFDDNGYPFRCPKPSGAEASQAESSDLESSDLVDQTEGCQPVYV
The settings on record: Published KINOMEscan; ref original PKIS2 published data; cited from earlier work.

The target of data set [4] is kinases (KINOMEscan panel) (Homo sapiens, UniProt Q9BVS4). The following applies: RIOK2; Published KINOMEscan; ref original PKIS2 published data; cited from earlier work.
Data set [5] deals with T2, kinases (KINOMEscan panel) (Homo sapiens, UniProt P54753).
T2 sequence (P54753 34-998): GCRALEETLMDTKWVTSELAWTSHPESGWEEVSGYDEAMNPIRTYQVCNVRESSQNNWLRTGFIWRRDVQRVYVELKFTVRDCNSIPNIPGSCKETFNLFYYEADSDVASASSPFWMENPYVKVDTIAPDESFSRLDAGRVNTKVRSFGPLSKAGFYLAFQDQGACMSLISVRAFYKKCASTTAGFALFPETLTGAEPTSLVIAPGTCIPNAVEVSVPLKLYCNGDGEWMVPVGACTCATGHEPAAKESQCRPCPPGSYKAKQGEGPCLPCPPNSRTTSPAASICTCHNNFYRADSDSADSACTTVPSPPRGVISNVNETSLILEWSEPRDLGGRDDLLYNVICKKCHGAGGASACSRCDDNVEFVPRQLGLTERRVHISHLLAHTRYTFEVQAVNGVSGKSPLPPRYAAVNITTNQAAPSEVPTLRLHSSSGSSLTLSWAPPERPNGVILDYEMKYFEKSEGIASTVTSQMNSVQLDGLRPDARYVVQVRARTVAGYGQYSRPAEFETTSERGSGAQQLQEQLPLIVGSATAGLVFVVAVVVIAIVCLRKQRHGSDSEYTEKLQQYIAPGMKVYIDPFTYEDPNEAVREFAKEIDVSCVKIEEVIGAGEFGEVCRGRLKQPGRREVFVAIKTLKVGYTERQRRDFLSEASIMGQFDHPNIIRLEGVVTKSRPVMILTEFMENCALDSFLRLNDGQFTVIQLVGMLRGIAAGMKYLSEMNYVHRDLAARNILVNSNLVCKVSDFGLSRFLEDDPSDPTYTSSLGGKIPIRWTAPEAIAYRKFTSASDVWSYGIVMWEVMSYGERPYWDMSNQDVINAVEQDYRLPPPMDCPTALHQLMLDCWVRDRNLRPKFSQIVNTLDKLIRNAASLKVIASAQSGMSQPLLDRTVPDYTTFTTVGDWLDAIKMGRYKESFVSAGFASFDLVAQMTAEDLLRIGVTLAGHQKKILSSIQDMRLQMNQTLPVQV
The following applies: kinase EPHB3; Published KINOMEscan; ref original PKIS2 published data; cited from earlier work.

Data set [6] has as its target kinases (KINOMEscan panel) (Homo sapiens, UniProt Q00526). The following applies: CDK3; Published KINOMEscan; ref original PKIS2 published data; cited from earlier work.

kinases (KINOMEscan panel) (Homo sapiens, UniProt Q9BVS4), sequence (Q9BVS4 whole entry): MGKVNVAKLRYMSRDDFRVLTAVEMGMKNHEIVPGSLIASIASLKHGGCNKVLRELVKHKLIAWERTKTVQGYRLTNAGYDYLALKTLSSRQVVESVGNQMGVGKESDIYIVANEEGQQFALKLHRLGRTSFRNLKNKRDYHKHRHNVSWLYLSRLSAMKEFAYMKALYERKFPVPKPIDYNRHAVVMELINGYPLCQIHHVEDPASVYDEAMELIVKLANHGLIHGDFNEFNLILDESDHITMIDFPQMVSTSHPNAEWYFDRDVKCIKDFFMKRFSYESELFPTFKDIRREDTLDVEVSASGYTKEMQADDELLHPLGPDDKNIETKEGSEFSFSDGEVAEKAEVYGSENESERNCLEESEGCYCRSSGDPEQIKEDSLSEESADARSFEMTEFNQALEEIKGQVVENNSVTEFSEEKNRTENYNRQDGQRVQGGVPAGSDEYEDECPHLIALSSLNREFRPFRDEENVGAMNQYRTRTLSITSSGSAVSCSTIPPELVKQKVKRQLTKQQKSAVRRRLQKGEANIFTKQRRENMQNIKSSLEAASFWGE
kinases (KINOMEscan panel) (Homo sapiens, UniProt Q8TDR2), sequence (Q8TDR2 whole entry): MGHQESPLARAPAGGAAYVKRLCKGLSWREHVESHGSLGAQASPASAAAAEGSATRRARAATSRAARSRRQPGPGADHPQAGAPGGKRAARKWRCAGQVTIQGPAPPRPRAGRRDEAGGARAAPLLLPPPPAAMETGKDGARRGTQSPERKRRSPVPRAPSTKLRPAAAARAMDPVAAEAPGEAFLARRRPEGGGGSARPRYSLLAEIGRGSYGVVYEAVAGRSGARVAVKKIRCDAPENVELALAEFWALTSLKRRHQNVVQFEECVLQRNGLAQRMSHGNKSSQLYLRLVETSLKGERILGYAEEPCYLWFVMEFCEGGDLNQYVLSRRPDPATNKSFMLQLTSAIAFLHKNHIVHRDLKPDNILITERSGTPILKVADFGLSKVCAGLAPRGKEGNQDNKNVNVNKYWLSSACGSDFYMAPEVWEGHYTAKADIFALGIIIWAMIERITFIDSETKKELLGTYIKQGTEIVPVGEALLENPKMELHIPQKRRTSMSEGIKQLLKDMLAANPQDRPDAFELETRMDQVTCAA
kinases (KINOMEscan panel) (Homo sapiens, UniProt Q00526), sequence (Q00526 whole entry): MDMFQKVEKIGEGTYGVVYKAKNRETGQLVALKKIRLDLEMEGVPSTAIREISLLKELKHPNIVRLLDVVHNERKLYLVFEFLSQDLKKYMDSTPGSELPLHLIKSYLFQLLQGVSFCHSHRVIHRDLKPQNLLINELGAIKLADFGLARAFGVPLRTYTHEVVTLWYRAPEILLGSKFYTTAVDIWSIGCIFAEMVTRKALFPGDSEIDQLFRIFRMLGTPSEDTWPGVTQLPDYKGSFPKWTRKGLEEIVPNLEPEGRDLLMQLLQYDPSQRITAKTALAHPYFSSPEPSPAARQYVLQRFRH
kinases (KINOMEscan panel) (Homo sapiens, UniProt Q5S007), sequence (Q5S007 whole entry): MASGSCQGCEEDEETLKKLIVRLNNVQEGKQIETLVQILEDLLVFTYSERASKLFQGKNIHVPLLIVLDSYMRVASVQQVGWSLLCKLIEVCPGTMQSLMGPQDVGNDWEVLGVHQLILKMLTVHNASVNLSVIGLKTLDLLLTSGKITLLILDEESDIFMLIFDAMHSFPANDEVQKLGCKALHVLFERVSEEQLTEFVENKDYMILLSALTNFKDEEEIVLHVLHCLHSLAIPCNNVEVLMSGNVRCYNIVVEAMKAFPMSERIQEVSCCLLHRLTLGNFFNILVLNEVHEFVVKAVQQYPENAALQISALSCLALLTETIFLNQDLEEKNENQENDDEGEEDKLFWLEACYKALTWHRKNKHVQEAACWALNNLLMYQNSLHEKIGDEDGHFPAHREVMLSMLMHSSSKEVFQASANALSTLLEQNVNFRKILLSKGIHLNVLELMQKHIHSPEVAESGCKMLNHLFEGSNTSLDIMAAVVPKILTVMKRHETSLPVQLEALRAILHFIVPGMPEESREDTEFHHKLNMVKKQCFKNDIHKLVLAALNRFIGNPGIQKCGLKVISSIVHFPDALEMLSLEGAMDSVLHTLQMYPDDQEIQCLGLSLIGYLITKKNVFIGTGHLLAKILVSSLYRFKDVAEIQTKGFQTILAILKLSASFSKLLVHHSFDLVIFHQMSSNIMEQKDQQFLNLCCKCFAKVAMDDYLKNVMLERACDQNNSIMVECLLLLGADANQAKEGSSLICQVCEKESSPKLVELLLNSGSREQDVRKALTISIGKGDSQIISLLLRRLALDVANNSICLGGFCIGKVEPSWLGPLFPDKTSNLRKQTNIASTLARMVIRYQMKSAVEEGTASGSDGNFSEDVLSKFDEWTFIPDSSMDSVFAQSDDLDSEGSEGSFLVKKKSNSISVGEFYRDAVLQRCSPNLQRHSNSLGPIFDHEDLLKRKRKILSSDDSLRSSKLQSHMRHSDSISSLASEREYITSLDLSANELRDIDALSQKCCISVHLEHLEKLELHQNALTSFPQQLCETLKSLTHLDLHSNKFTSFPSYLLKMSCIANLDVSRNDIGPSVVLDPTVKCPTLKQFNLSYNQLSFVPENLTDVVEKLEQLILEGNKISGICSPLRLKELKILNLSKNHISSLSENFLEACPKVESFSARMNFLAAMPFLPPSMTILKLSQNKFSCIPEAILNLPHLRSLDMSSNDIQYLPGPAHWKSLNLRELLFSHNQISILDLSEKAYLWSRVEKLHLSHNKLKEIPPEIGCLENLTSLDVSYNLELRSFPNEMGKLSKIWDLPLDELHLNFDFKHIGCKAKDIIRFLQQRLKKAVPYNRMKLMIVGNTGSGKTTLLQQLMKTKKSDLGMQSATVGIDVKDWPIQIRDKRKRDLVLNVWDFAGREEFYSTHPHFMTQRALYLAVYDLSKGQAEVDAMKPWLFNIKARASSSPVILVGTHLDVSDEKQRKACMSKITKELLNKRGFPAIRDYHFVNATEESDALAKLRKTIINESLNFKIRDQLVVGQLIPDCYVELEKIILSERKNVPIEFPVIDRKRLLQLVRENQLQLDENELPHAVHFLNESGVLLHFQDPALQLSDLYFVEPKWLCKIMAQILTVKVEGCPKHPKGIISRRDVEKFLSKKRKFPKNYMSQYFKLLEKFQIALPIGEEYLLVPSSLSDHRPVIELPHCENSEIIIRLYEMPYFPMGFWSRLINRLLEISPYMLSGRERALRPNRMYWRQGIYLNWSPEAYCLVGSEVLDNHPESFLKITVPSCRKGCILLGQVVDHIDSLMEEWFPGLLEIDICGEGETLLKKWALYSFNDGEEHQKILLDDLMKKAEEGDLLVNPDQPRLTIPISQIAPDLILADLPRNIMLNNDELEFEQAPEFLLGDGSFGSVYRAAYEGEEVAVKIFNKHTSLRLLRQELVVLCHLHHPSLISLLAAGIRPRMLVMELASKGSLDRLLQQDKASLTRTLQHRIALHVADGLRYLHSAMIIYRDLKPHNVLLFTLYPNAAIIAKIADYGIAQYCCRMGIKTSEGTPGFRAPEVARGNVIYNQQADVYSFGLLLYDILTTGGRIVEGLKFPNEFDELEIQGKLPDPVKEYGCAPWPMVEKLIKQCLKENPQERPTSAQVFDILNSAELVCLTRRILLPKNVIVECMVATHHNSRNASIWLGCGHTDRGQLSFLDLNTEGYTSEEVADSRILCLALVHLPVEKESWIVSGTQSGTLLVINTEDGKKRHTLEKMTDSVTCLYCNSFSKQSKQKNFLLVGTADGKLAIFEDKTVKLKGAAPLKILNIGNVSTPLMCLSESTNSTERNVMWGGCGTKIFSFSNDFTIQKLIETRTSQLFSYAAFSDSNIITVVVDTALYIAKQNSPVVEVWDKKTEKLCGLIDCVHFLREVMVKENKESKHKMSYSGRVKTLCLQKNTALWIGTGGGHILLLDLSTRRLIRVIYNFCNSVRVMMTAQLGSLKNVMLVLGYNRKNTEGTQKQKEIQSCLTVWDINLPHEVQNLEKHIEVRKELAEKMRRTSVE

Take `Cc1cccc(-c2nc(Nc3ccncc3)c3ccccc3n2)n1` [NK215]: the “KINOMEscan STK35” value in data set [1] is reported as 0. Also, in data set [2], the “KINOMEscan LRRK2” value was 0. The “KINOMEscan LATS2” value in data set [3] was 0. In data set [4], the “KINOMEscan RIOK2” value was 0. Also, in data set [5], the “KINOMEscan EPHB3” value is 11. In data set [6], the “KINOMEscan CDK3” value is 20.
